Reference: article doi:10.1101/2024.12.25.630315 (bioRxiv, 2024)

Legend:
[1] = molecular target: T1, Nectin-4 (Homo sapiens, UniProt Q96NY8); test: In vivo blocking of [^68Ga]AJ647 uptake by non-radioactive AJ647, HT1376 xenografts; design: species or system mouse; settings: 1 mg/kg non-radioactive AJ647; PET
T1 construct: host or cells: HT1376, SCaBER, T24, RT112, UC9, UC14 urothelial carcinoma cells; HT1376 xenografts in NSG mice
T1 sequence (Q96NY8 32-510): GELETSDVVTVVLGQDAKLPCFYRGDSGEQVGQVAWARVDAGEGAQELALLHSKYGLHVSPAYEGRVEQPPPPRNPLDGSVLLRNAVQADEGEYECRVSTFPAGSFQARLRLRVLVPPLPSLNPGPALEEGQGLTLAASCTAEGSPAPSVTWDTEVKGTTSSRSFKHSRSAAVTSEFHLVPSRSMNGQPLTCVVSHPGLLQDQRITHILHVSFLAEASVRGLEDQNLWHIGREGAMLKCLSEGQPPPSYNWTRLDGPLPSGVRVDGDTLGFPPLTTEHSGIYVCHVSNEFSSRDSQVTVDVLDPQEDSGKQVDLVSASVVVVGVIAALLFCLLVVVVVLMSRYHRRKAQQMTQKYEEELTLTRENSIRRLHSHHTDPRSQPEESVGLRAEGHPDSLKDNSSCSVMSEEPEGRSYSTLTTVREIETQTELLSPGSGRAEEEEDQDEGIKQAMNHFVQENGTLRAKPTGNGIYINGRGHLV
Protocol: Dynamic PET-MR imaging was performed for up to 90 minutes post-injection. […] By 60 minutes, the tumor contrast had further improved due to background radiotracer clearance, as evidenced by the percent injected activity per cubic centimeter (%IA/cc) values derived from [^68Ga]AJ647 PET (Fig. 4B). […] In contrast, minimal uptake was detected in non–Nectin-4-expressing tissues such as muscle.
Mice with tumor volume of ~100–150 mm^3 were injected with ~[…] (7.4 MBq) of [^68Ga]AJ647 in […] of 5% ethanol in saline intravenously and anesthetized under 2.5% isoflurane. PET-CT images were acquired at 60 minutes after radiotracer injection at 5 min/bed in an ARGUS small-animal PET/CT scanner (Sedecal, Madrid, Spain) as described (n=3 unless otherwise noted). PET-MR images were acquired on a simultaneous 7T Bruker PET-MR scanner. Dynamic imaging was conducted to evaluate pharmacokinetics of [^68Ga]AJ647. […] The SUV values were calculated by finding percent of injected activity (%IA) based on a calibration factor obtained from a known radioactive quantity, then normalizing by mice weight. […] For change in accessible Nectin-4 levels following EV treatment, ΔSUV was calculated by subtracting baseline (pre-treatment) uptake from post-therapy uptake of [^68Ga]AJ647. Target engagement was quantified by normalizing this change by initial SUV in same subject controls. […]

[2] = molecular target: T1, Nectin-4; test: In vitro blocking of [^68Ga]AJ647 uptake by non-radioactive AJ647; type: cell-based; settings: pre-incubation with 2 μM non-radioactive AJ647
Protocol: Figure 3. In vitro specificity of [^68Ga]AJ647 for Nectin-4 in bladder cancer cell lines A) [^68Ga]AJ647 binding (percent incubated activity, %IA) to various bladder cancer cell lines. Cells were incubated with ~37 kBq (~1 μCi) [^68Ga]AJ647 at 4°C for 1 hour. […] B) Flow cytometry analysis of Nectin-4 receptor expression across different bladder cancer cell lines, providing insight into the variability in receptor density among the cell lines. […] Data in figure A and C are represented as mean ± SD. Pearson correlation used in C.

effect on [^68Ga]AJ647 tracer uptake in HT1376 xenografts [1]: reduction in tracer uptake
effect of blocking dose on [^68Ga]AJ647 uptake in bladder cancer cell lines [2]: significantly reduced radiotracer uptake
SMILES: CSCC[C@@H]1NC(=O)[C@@H]2CSCCC(=O)N3CN(CN(C3)C(=O)CCSC[C@H](NC(=O)CCOCCOCCOCCOCCOCCOCCOCCOCCOCCOCCOCCOCCNC(=O)CN3CCN(CC(=O)O)CCN(CC(=O)O)CC3)C(=O)N3CCC[C@H]3C(=O)N[C@@H](Cc3cccc4ccccc34)C(=O)N[C@@H](CC(=O)O)C(=O)N2)C(=O)CCSC[C@@H](C(N)=O)NC(=O)[C@H](Cc2c[nH]c3ccccc23)NC(=O)[C@@H]2C[C@@H](O)CN2C(=O)[C@@H]2CCCN2C(=O)[C@H]([C@@H](C)O)NC(=O)[C@H](CO)NC(=O)[C@H](Cc2c[nH]c3ccccc23)NC(=O)[C@@H](CC(=O)O)NC(=O)[C@H](CCCCNC(=N)N)NC1=O [AJ647]
